Results as given in PubChem BioAssay AID179 (DTP/NCI, 2004).
The source made the active and inactive calls.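 How the source made its calls: active means compounds giving half or more protection of infected cells from virus-caused growth loss, again on retest; inactive means the rest.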

Test system: CEM cells HIV-1 protection, formazan growth assay
Experiment: NCI AIDS Antiviral Assay
Details: for IC50: measured here: growth of uninfected CEM cells
Protocol: The ability of compounds to protect human CEM cells from HIV-1 infection is measured as a screen for new compounds capable of inhibiting the HIV virus. Five concentrations of drug were tested on uninfected and infected cells and cell growth was measured using a soluble formazan assay. […] Compounds that provided at least 50% protection were retested. Compounds that provided at least 50% protection on retest were listed as moderately active. Compounds that reproducibly provided 100% protection were listed as confirmed active. […] Note that the inability to provide protection could be due to toxicity.

Row | Structure (SMILES) | EC50 | IC50 | outcome
1 | Cn1c(COc2ccc(/C=N/Nc3ccnc(N/N=C/c4ccc(OCc5c[n+]6ccccc6n5C)cc4)n3)cc2)c[n+]2ccccc12 | 3.02 µM | 3.24 µM | 
2 | O=C(O)/C=C/c1ccc2c(c1)CC1(Cc3ccccc3C1)C2 | > 200 µM | 49 µM | 
3 | O=C(NO)c1ccc(OCc2ccccc2)cc1 | > 200 µM | 16.2 µM | 
4 | Cc1occc1C(=S)Nc1ccc(Cl)c(/C=N/OC(C)C)c1 | 0.0263 µM | 18.2 µM | 
5 | COC(=O)C(Cc1nc2ccc(Cl)cc2[nH]c1=O)/C(=N/O)C(=O)Nc1cccc(Cl)c1C (centres undefined) | > 105 µM | > 105 µM | 
6 | Cc1nc2ccccc2c(=O)n1-c1ccccc1 | > 1050 µM | 631 µM | 
7 | O=S(=O)(O)c1ccc(N=Nc2ccc(N=Nc3c(O)c(S(=O)(=O)O)cc4cc(S(=O)(=O)O)ccc34)cc2)cc1 |  |  | inactive
8 | Cc1cc(S(=O)(=O)Nc2nnc3cnc4ccccc4n23)c(S)cc1Cl | 89.1 µM | 339 µM | 
9 | COC(C(=O)NCCCCNC(=O)C(OC)c1ccccc1)c1ccccc1 (centres undefined) |  |  | inactive
10 | Cc1cc(N=Nc2ccc(NC(=O)c3ccc(NC(=O)c4ccccc4)cc3)c3ccc(S(=O)(=O)O)cc23)ccc1N=Nc1ccc2c(O)cc(S(=O)(=O)O)cc2c1 | > 50.1 µM | > 50.1 µM | 
11 | COc1ccc(C2c3cc(OC)c(OC)cc3C(Cc3ccc([N+](=O)[O-])cc3)C2c2ccc([N+](=O)[O-])cc2)cc1OC (centres undefined) | > 2.51 µM | > 2.51 µM | 
12 | Cc1cc(O)cc2oc(=O)c3c(O)cc(O)cc3c12 | > 479 µM | 12.6 µM | 
13 | Cc1cc(C23OC4COC(C)(C)OC4C2OC(C)(C)O3)ncn1 (centres undefined) | > 200 µM | > 200 µM | 
14 | Cc1nnc(Cc2ccccc2)c2n[nH]c(C)c12 | > 398 µM | 110 µM | 
15 | Cc1ccccc1-n1c(=O)c2ncn(CCCl)c2n(-c2ccccc2C)c1=S | > 200 µM | 102 µM | 
16 | c1ccc2c(c1)ncn2C1CCCCO1 (centres undefined) | > 200 µM | > 200 µM | 
17 | NN=C(N)N | > 200 µM | > 200 µM | 

Row | Structure (SMILES) | EC50 | IC50 | outcome
18 | CC1(C)Cc2nnsc2C2=C1C(=O)CCS2 |  |  | inactive
19 | N#CC1=C(Nc2ccccc2)SC=C(c2ccccc2)NC1=NCc1ccccc1 | > 200 µM | 97.7 µM | 
20 | CN1N(c2ccccc2)C(=O)C2=NC=C(C(=O)c3ccc(Cl)cc3)C(=N)C21C (centres undefined) | > 200 µM | > 200 µM | 
21 | CC(=O)O[C@H]1[C@@H]2[C@@H]3[C@@H](C[C@H]1C)[C@@H](C)CO[C@@]1(C)CC/C=C(/C)C[C@@H]2O[C@@H]31 | > 100 µM | > 100 µM | 
22 | CCOC(=O)CN1CCC2CC1c1c([nH]c3ccccc13)C2c1cc2c(cc1OC)N(C)C1C(O)(C(=O)OC)C(OC(C)=O)C3(CC)C=CCN4CCC21C43 (centres undefined) | > 9.55 µM | > 9.55 µM | 
23 | ONC1=Nc2cc(Cl)ccc2C(=S)N2CSCC12 (centres undefined) | > 200 µM | > 200 µM | 
24 | CO/C(=N\Nc1ccc([N+](=O)[O-])cc1)P(=O)(OC(C)C)OC(C)C | > 12.9 µM | > 12.9 µM | 
25 | COC(=O)CSc1nnc(CSc2ccc(Cl)cc2)n1-c1ccccc1 | > 200 µM | 105 µM | 
26 | Nc1nc(NCCO)c(N=O)c(=O)[nH]1 | > 182 µM | > 182 µM | 
27 | C#CCNCC(=O)O | 46.8 µM | > 200 µM | 
28 | CCOc1ccc2nc(NC(=O)c3c/c(=N\NC(=O)C[N+](C)(C)C)c4ccc(O)cc4o3)sc2c1 | > 178 µM | 2.24 µM | 
29 | O=[N+]([O-])c1cc(Cl)ccc1S(=O)(=O)c1cc(Cl)cc2c1NCCC2 | > 200 µM | 32.4 µM | 
30 | Cc1cc2c(C(C)C)c(O)c(O)c(C=O)c2c(O)c1-c1c(C)cc2c(C(C)C)c(O)c(O)c(C=O)c2c1O | > 200 µM | 1.23 µM | inactive
31 | COC(=O)CCC1=NCC(C)(C)O1 | > 200 µM | > 200 µM | 
32 | CC1=CC(=O)/C(=C/n2c(=S)sc3ccccc32)C(=O)O1 | > 200 µM | > 200 µM | 
33 | Cc1cc(C)nc(NS(=O)(=O)c2ccc(NC(=O)c3ccc4nc5ccccc5c(Nc5ccc(S(N)(=O)=O)cc5)c4c3)cc2)n1 | > 200 µM | 39.8 µM | 
